Data reported in US20210053957A1, “HERBICIDAL COMPOUNDS” (SYNGENTA PARTICIPATIONS AG, priority 2018, published 2021).

Tests used:
Experiment in all cases: Post-emergence efficacy, glasshouse spray test
Assay type in all cases: in vivo
Details in all cases: evaluated after 13 days
[1] = test system: Lolium perenne (LOLPE)
Summary of the method: (§1)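 Sow in standard soil; grow 14 d at 24/16° C, 14 h light, 65% humidity; spray aqueous dilution of IF50 formulation; return to glasshouse, water twice daily; score injury 0–100 at day 13.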

[2] = test system: Eleusine indica (ELEIN)
Summary of the method: as §1

[3] = test system: Euphorbia heterophylla (EPHHL)
Summary of the method: as §1

[4] = test system: Amaranthus palmeri (AMAPA)
Summary of the method: as §1

[5] = test system: Digitaria sanguinalis (DIGSA)
Summary of the method: as §1

[6] = test system: Setaia fabei (SETFA)
Summary of the method: as §1

[7] = test system: Ipomoea hederacea (IPOHE)
Summary of the method: as §1

[8] = test system: Echinochloa crus-galli (ECHCG)
Summary of the method: as §1

[9] = test system: Chenopodium album (CHEAL)
Summary of the method: as §1

[10] = Lolium perenne, post-emergence, 312 h, Application Rate 500 g/Ha, read-out: Control of weed species after post-emergence application, LOLPE (100=total damage to plant; 0=no damage to plant)
[11] = Eleusine indica, post-emergence, 312 h, Application Rate 500 g/Ha, read-out: Control of weed species after post-emergence application, ELEIN (100=total damage to plant; 0=no damage to plant)
[12] = Euphorbia heterophylla, post-emergence, 312 h, Application Rate 500 g/Ha, read-out: Control of weed species after post-emergence application, EPHHL (100=total damage to plant; 0=no damage to plant)
[13] = Amaranthus palmeri, post-emergence, 312 h, Application Rate 500 g/Ha, read-out: Control of weed species after post-emergence application, AMAPA (100=total damage to plant; 0=no damage to plant)
[14] = Digitaria sanguinalis, post-emergence, 312 h, Application Rate 500 g/Ha, read-out: Control of weed species after post-emergence application, DIGSA (100=total damage to plant; 0=no damage to plant)
[15] = Setaria faberi, post-emergence, 312 h, Application Rate 500 g/Ha, read-out: Control of weed species after post-emergence application, SETFA (100=total damage to plant; 0=no damage to plant)
[16] = Ipomoea hederacea, post-emergence, 312 h, Application Rate 500 g/Ha, read-out: Control of weed species after post-emergence application, IPOHE (100=total damage to plant; 0=no damage to plant)
[17] = Echinochloa crus-galli, post-emergence, 312 h, Application Rate 500 g/Ha, read-out: Control of weed species after post-emergence application, ECHCG (100=total damage to plant; 0=no damage to plant)
[18] = Chenopodium album, post-emergence, 312 h, Application Rate 500 g/Ha, read-out: Control of weed species after post-emergence application, CHEAL (100=total damage to plant; 0=no damage to plant)

Row | SMILES | pest or weed control at 500 g/ha [1, 10] | pest or weed control at 500 g/ha [2, 11] | pest or weed control at 500 g/ha [3, 12] | pest or weed control at 500 g/ha [4, 13] | pest or weed control at 500 g/ha [5, 14] | pest or weed control at 500 g/ha [6, 15] | pest or weed control at 500 g/ha [7, 16] | pest or weed control at 500 g/ha [8, 17] | pest or weed control at 500 g/ha [9, 18] | also measured
1 | Cn1ccc(-c2cc[n+](CCS(=O)(=O)[O-])nc2)n1 [Compound A2] |  |  |  |  |  |  |  |  |  | pest or weed control at 125 g/ha ([1]; Lolium perenne, post-emergence, 312 h, Application Rate 125 g/Ha, read-out: Control of weed species after post-emergence application, LOLPE (100=total damage to plant; 0=no damage to plant)): 0%; pest or weed control at 125 g/ha ([2]; Eleusine indica, post-emergence, 312 h, Application Rate 125 g/Ha, read-out: Control of weed species after post-emergence application, ELEIN (100=total damage to plant; 0=no damage to plant)): 10%; pest or weed control at 125 g/ha ([3]; Euphorbia heterophylla, post-emergence, 312 h, Application Rate 125 g/Ha, read-out: Control of weed species after post-emergence application, EPHHL (100=total damage to plant; 0=no damage to plant)): 30%; pest or weed control at 125 g/ha ([4]; Amaranthus palmeri, post-emergence, 312 h, Application Rate 125 g/Ha, read-out: Control of weed species after post-emergence application, AMAPA (100=total damage to plant; 0=no damage to plant)): 0%; pest or weed control at 125 g/ha ([5]; Digitaria sanguinalis, post-emergence, 312 h, Application Rate 125 g/Ha, read-out: Control of weed species after post-emergence application, DIGSA (100=total damage to plant; 0=no damage to plant)): 20%; pest or weed control at 125 g/ha ([6]; Setaria faberi, post-emergence, 312 h, Application Rate 125 g/Ha, read-out: Control of weed species after post-emergence application, SETFA (100=total damage to plant; 0=no damage to plant)): 20%; pest or weed control at 125 g/ha ([7]; Ipomoea hederacea, post-emergence, 312 h, Application Rate 125 g/Ha, read-out: Control of weed species after post-emergence application, IPOHE (100=total damage to plant; 0=no damage to plant)): 10%; pest or weed control at 125 g/ha ([8]; Echinochloa crus-galli, post-emergence, 312 h, Application Rate 125 g/Ha, read-out: Control of weed species after post-emergence application, ECHCG (100=total damage to plant; 0=no damage to plant)): 10%; pest or weed control at 125 g/ha ([9]; Chenopodium album, post-emergence, 312 h, Application Rate 125 g/Ha, read-out: Control of weed species after post-emergence application, CHEAL (100=total damage to plant; 0=no damage to plant)): 0%
2 | Cc1coc(-c2cc[n+](CCCS(=O)(=O)[O-])nc2)n1 [Compound A136] | 60% | 60% | 70% | 70% | 70% | 80% | 20% | 40% | 30% | 
3 | COP(=O)(O)CC[n+]1ccc(-c2ncco2)cn1 [Compound A106] | 0% | 20% | 60% | 10% | 80% | 50% | 20% | 40% | 0% | 
4 | O=C(O)CC[n+]1ccc(-c2cnns2)cn1 [Compound A138] | 0% | 70% | 100% | 90% | 60% | 30% | 70% | 40% | 40% | 
5 | Cn1nc(C(F)(F)F)cc1-c1cc[n+](CCS(=O)(=O)[O-])nc1 [Compound A30] | 50% | 40% | 40% | 80% | 30% | 40% | 20% | 20% | 40% | 
6 | O=C(O)CC[n+]1ccc(-c2nc(C(F)(F)F)co2)cn1 [Compound A56] | 50% | 80% | 90% | 100% | 70% | 80% | 30% | 90% | 80% | 
7 | O=S(=O)([O-])NCC[n+]1ccc(-c2ncco2)cn1 [Compound A73] | 10% | 70% | 50% | 80% | 70% | 60% | 30% | 50% | 70% | 
8 | COC(=O)c1ccccc1C[n+]1ccc(-c2ncco2)cn1 [Compound A95] | 0% | 10% | 30% | 10% | 30% | 20% | 10% | 10% | 0% | 
9 | O=C(O)CC[n+]1ccc(-c2ncco2)cn1 [Compound A32] | 40% | 90% | 80% | 80% | 90% | 80% | 60% | 90% | 90% | 
10 | CCOC(=O)CC[n+]1ccc(-c2cocn2)cn1 [Compound A20] | 10% | 50% | 10% | 40% | 60% | 20% | 10% | 30% | 20% | 
11 | Nc1nnc(-c2cc[n+](CCS(=O)(=O)[O-])nc2)s1 [Compound A65] | 90% | 100% | 90% | 80% | 100% | 100% | 60% | 60% | 70% | 
12 | O=C(O)CC[n+]1ccc(-c2cnsc2)cn1 [Compound A62] | 0% | 0% | 40% | 0% | 10% | 0% | 20% | 0% | 20% | 
13 | O=P(O)(O)C[n+]1ccc(-c2ncco2)cn1 [Compound A102] |  |  |  |  |  |  |  |  |  | Control of weed species after post-emergence application, LOLPE (100=total damage to plant; 0=no damage to plant) ([1]; Application Rate 500 g/Ha): 10; Control of weed species after post-emergence application, ELEIN (100=total damage to plant; 0=no damage to plant) ([2]; Application Rate 500 g/Ha): 30; Control of weed species after post-emergence application, EPHHL (100=total damage to plant; 0=no damage to plant) ([3]; Application Rate 500 g/Ha): 90; Control of weed species after post-emergence application, AMAPA (100=total damage to plant; 0=no damage to plant) ([4]; Application Rate 500 g/Ha): 100; Control of weed species after post-emergence application, DIGSA (100=total damage to plant; 0=no damage to plant) ([5]; Application Rate 500 g/Ha): 60; Control of weed species after post-emergence application, SETFA (100=total damage to plant; 0=no damage to plant) ([6]; Application Rate 500 g/Ha): 60; Control of weed species after post-emergence application, IPOHE (100=total damage to plant; 0=no damage to plant) ([7]; Application Rate 500 g/Ha): 60; Control of weed species after post-emergence application, ECHCG (100=total damage to plant; 0=no damage to plant) ([8]; Application Rate 500 g/Ha): 70; Control of weed species after post-emergence application, CHEAL (100=total damage to plant; 0=no damage to plant) ([9]; Application Rate 500 g/Ha): 90
14 | COC(=O)C[n+]1ccc(-c2nccs2)cn1 [Compound A120] | 0% | 90% | 70% | 100% | 80% | 60% | 10% | 70% | 50% | 
15 | CCOP(=O)(O)CC[n+]1ccc(-c2ncco2)cn1 [Compound A85] | 10% | 30% | 20% | 10% | 40% | 20% | 30% | 20% | 0% | 
